Assay results: patent publication US4921865A, “Aminoacylates of glycerol acetal” (Societe de Conseils de Recherches et d'Applications …, priority 1987, dated 1990)

Tests used:
[1] = tested on: platelets (PAF induced platelet aggregation); test: inhibition of PAF-induced platelet aggregation in platelet rich plasma; type: cell-based, New Zealand rabbits; conditions: Oryctolagus cuniculus; rabbit platelet rich plasma, 2.5 nM PAF
Experimental: 1--INHIBITION OF THE PLATELETS AGGREGATION ON NEW ZEALAND RABBITS
The experimentation was conducted on platelets with plasma of New Zealand rabbits.
Blood samples were taken from auricular artery and placed in a citrate buffer (3.8 %; pH 7.4); blood was further centrifugated for 15 mn at 1200 RPM.
The tested sample was prepared in DMSO, then poured on platelets rich plasma for 1 mn, then a dose of 2.5 nM of PAF was added.
The determination is made on a Cronolog Coultronics apparatus which determines the transmission percentage corresponding to the maximum height of the peak before the desaggregation.
The percentage of variation of the inhibition with respect to the transmission percentage is calculated (control: pure DMSO).
This method was described in details in LABORATORY INVESTIGATIONS, Vol. 41, No. 3, p. 275, 1979, JEAN-PIERRE CAZENAVE, Dr. MED. , JACQUES BENVENISTE, Dr. MED., AND J. FRASER MUSTARD, M.D., "Aggregation of Rabbits Platelets by Platelet-Activating Factor Is Independent of the Release Reaction and the Arachidonate Pathway and Inhibited by Membrane-Active Drugs".
Five tests made on 5 different rabbits allowed us to calculate the IC50 of the various compounds using the linear regression test.

[2] = biological target: T1, [^3 H]-PAF binding, platelet membrane (Oryctolagus cuniculus, UniProt G1TEI7); test: inhibition of specific [3H]-PAF binding to rabbit platelet membranes; conditions: 1 nM [3H]-PAF, 0°C 1 h 30
T1 construct: Platelet membrane homogenate was stored at -80° C; from tissue; host or cells: rabbit platelets (membrane homogenate from lysed washed platelets)
T1 sequence (G1TEI7 1-342): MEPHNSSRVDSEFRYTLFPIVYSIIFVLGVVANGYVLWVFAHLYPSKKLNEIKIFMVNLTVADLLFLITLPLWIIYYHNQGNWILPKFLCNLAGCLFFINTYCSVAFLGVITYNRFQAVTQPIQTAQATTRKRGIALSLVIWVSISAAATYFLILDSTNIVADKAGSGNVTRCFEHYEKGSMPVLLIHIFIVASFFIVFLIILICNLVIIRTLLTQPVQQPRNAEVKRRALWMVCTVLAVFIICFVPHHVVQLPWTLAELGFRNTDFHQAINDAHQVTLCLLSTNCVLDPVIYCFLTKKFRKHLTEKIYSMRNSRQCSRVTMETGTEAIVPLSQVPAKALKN
Experimental: Synthetic tritiated [^3 H]-PAF used was in ethanol solution with a specific activity of 59.5 ci/mmols. Unlabelled PAF and lyso-PAF were solubilized in ethanol solution and stored at -80° C. The compounds were solubilized in DMSO.
Rabbit whole blood (6 volumes) was drawn from the central ear artery into 1 volume of ACD solution (citric acide 1.4 g, sodium citrate 2 5 g, Dextrose 2 g per 100 ml of H2 O) and centrifuged at 150 g for 15 minutes. The platelet-rich plasma (PRP) was carefully removed and centrifuged for 15 minutes at 1000 g. The platelet pellet was then washed 3 times: twice in Tris-HCl buffer 10 mM, pH 7.4 containing NaCl 150 mM, MgCl2 5 mM, EDTA 2 mM and the last time in the same but sodium-free buffer.
The platelet pellet was resuspended in this latter buffer, quickly frozen in liquid nitrogen and slowly thawed at room temperature for at least 3 times as described by T. Y. Shen et al. The lysed platelets were centrifuged at 100,000 g for 30 minutes in a BECKMAN model L8.55 ultra centrifuge (rotor 50.2 Ti). Platelet membrane homogenate was stored at -80° C. and used within two weeks without noticeable changes in PAF-acether binding characteristics.
Protein contain was determined by the Lowry method using bovine serum albumine as standard.
60 to 100 μg of membrane proteins were added to a final volume of 1 ml in plastic tubes containing 1 nM [^3 H]-PAF in Tris-HCl 10 mM pH 7 buffer containing 0.025 % bovine serum albumin and incubated with or without unlabelled PAF or PAF-antagonists. The incubation was carried out for 1 h 30 at 0° C. The bound [^3 H]-PAF was separated from the free [^3 H]-PAF by immediate filtration through whatman GF/C glass fiber filters under vacuum (Brandel system). The reaction and the filters were washed 3 times with 5 ml of ice-cold buffer. The filters were then placed into polyethylene phials filled up with 10 ml of liquid scintillation fluid and the radioactivity was measured by an LKB β counter with 45% efficiency.
The non specific binding was determined in the presence of 10^-6 M of unlabelled PAF. The specific binding was calculated by substracting non specific binding from the total binding. The inhibition by compounds on the specific [^3 H]-PAF binding was determined as the percent inhibition by the equation: [formula]

[3] = tested on: antigen-induced bronchoconstriction; test: antigen-induced bronchoconstriction in passively sensitized guinea-pigs; type: in vivo, guinea-pig (Hartley); conditions: 5 mg/kg IV
[4] = tested on: antigen-induced leukopenia; test: antigen-induced leukopenia in passively sensitized guinea-pigs; type: in vivo, guinea-pig (Hartley); conditions: 5 mg/kg IV; for Percentage Inhibition (leukopenia): vs control
[5] = tested on: antigen-induced thrombocytopenia; test: antigen-induced thrombocytopenia in passively sensitized guinea-pigs; type: in vivo, guinea-pig (Hartley); conditions: 5 mg/kg IV; for Percentage Inhibition (thrombocytopenia): vs control

Structure (SMILES)	IC50 [1] [nM]	IC50 [2] [nM]	Percentage Bronchoconstriction [3]	effect on antigen-induced bronchoconstriction (in words) [3]	Percentage Variation (bronchoconstriction) ([3]; vs control) [%]	effect on antigen-induced leukopenia (in words) [4]	Percentage Decrease in leukocytes number ([4]; 1 mn)	Percentage Inhibition (leukopenia) ([4]; 1 mn)	Percentage Decrease in leukocytes number ([4]; 5 mn)	Percentage Inhibition (leukopenia) ([4]; 5 mn) [%]	Percentage Decrease in leukocytes number ([4]; 10 mn)	Percentage Inhibition (leukopenia) ([4]; 10 mn) [%]	effect on antigen-induced thrombocytopenia (in words) [5]	Percentage Inhibition (thrombocytopenia) ([5]; 1 mn) [%]	Percentage Inhibition (thrombocytopenia) ([5]; 5 mn) [%]	Percentage Inhibition (thrombocytopenia) ([5]; 10 mn) [%]
CCCCCCCCCCCCCCCCCC1(C)OCC(COC(=O)CCCCC[n+]2ccccc2)O1 (stereo not drawn) [Example 9, 2-heptadecyl 2-methyl 4-[6'-(N-pyridinium)hexanoyloxymethyl] 1,3 dioxolan bromide]	404	35	51.3 +/- 14.2%	without significantly reducing	-28.7	antagonizes	-15.6 +/- 6.6%	+32.0%	-8.7 +/- 10.7%	-78.0	-12.3 +/- 14.1%	-77.2	antagonizes	-104.4	-91.2	-39.8
CCCCCCCCCCCCCCCCCC1(C)OCC(COC(=O)CCCCC[n+]2cccc3ccccc32)O1 (stereo not drawn) [Example 10, 2-heptadecyl 2-methyl 4-[6'-(N-quinolinium)hexanoyloxymethyl) 1,3-dioxolanbromide]	303	35	–	–	–	–	–	–	–	–	–	–	–	–	–	–
